Experimental data as given in ChEMBL document CHEMBL4627307, “One-pot synthesis of thioxo-tetrahydropyrimidine derivatives as potent β-glucuronidase inhibitor, biological evaluation, molecular docking and molecular dynamics studies” (Bioorg Med Chem, 2020).

Molecular target: T1, Beta-glucuronidase (Homo sapiens, UniProt P08236)
T1 sequence (P08236 whole entry): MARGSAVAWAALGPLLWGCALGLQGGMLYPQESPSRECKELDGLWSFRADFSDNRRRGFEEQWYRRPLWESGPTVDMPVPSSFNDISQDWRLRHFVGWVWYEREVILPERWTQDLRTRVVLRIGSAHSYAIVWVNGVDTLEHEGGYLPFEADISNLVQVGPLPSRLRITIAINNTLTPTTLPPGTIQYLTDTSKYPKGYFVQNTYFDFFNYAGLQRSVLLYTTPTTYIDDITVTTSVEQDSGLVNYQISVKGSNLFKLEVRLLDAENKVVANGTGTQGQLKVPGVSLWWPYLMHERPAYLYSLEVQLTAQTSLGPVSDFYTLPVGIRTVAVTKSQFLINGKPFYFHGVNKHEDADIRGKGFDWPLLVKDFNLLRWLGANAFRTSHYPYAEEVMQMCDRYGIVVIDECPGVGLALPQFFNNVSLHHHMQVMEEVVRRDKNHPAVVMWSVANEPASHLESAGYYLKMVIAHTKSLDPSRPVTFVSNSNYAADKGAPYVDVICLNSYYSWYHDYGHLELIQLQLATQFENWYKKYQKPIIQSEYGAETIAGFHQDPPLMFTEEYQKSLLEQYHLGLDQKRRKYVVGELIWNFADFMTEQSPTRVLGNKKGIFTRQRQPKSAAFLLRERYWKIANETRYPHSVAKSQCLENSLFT
Experiment: Inhibition of beta-glucuronidase (unknown origin) using p-nitrophenyl-beta-D-glucuronide as substrate pre-incubated for 30 mins followed by substrate addition by spectrophotometric method

- IC50: 0.35 µM
Structure (SMILES): CCN(CC)C(=O)C1=C(C)N=C(S)NC1c1cccs1 (stereo unspecified)
